Measured values from US10822349B2, “Macrocyclic purines for the treatment of viral infections” (JANSSEN SCIENCES IRELAND UNLIMITED COMPANY, priority 2012, dated 2020).
Like-named read-outs stand apart in the source and are kept apart here. One block for each compound: values may come before it.

Legend:
[1] = rcm bond
human TLR7 = biological target: T1, human TLR7 (Homo sapiens, UniProt Q9NYK1); assay: TLR7 cellular reporter assay (HEK293 TLR7-NFκB-luc); type: cell-based; settings: lowest effective concentration; HEK293 transiently transfected with TLR7 and NFκB-luc; 6 hours incubation
T1 construct: expressed in transfected cells; host or cells: HEK293
T1 sequence (Q9NYK1 27-1049): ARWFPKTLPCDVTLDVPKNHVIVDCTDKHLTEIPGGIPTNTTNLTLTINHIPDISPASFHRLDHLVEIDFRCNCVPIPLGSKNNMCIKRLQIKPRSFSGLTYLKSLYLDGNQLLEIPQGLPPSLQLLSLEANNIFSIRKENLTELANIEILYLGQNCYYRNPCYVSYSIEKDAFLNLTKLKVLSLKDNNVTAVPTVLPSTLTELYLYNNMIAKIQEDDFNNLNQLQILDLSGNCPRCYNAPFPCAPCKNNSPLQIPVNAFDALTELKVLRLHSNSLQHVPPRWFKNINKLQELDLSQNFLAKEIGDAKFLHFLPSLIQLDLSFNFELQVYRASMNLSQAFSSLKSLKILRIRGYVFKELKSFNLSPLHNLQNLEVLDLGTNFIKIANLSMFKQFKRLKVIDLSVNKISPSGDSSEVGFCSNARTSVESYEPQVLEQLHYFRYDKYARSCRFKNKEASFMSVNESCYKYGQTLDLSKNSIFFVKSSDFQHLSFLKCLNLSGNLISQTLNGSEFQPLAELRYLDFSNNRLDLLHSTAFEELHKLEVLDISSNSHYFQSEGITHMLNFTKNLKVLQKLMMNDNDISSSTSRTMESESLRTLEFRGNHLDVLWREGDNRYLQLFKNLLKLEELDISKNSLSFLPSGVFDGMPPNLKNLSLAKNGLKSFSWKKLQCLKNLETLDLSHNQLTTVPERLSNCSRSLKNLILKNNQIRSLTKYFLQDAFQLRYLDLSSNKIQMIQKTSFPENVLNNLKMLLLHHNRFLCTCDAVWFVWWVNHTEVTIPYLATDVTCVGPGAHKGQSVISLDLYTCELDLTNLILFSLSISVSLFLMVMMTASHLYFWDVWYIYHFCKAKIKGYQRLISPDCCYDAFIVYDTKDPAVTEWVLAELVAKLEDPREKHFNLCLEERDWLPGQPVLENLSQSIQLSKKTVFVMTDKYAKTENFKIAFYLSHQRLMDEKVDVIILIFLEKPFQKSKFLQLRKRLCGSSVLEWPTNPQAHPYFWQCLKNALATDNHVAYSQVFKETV
Protocol: The ability of compounds to activate human TLR7 and TLR8 was assessed in a cellular reporter assay using HEK293 cells transiently transfected with a TLR7 or TLR8 expression vector and NFκB-luc reporter construct. Briefly, HEK293 cells were grown in culture medium (DMEM supplemented with 10% FCS and 2 mM Glutamine). For transfection of cells in 10 cm dishes, cells were detached with Trypsin-EDTA, transfected with a mix of CMV-TLR7 or TLR8 plasmid (750 ng), NFκB-luc plasmid (375 ng) and a transfection reagent and incubated 48 hours at 37° C. in a humidified 5% CO2 atmosphere. Transfected cells were then detached with Trypsin-EDTA, washed in PBS and resuspended in medium to a density of 1.67×10^5 cells/mL. Thirty microliters of cells were then dispensed into each well in 384-well plates, where 10 μL of compound in 4% DMSO was already present. Following 6 hours incubation at 37° C., 5% CO2, the luciferase activity was determined by adding 15 μl of Steady Lite Plus substrate (Perkin Elmer) to each well and readout performed on a ViewLux ultraHTS microplate imager (Perkin Elmer). Dose response curves were generated from measurements performed in quadruplicates. Lowest effective concentrations (LEC) values, defined as the concentration that induces an effect which is at least two fold above the standard deviation of the assay, were determined for each compound.

[2] = tested on: interferon production in human PBMC; assay: Interferon production in human PBMC, read out on HEK-ISRE-luc reporter cells; type: cell-based; settings: Homo sapiens, PBMC, 24 h, lowest effective concentration, PBMC supernatant after overnight incubation transferred to HEK-ISRE-luc cells, read-out: PBMC HEK-ISRE-luc (LEC; μM)
Protocol: Activation of human TLR7 results in robust production of interferon by plasmacytoid dendritic cells present in human blood. The potential of compounds to induce interferon was evaluated by determination of interferon in the conditioned media from peripheral blood mononuclear cells (PBMC). The presence of interferon in the samples was determined, using an interferon reporter cell line stably expressing an interferon-stimulated responsive elements (ISRE)-luc reporter construct. The ISRE element with sequence GAAACTGAAACT (SEQ ID: 1) is highly responsive to the STAT1-STAT2-IRF9 transcription factor, which becomes activated upon binding of IFN-I to the IFN receptor. Briefly, PBMCs were prepared from buffy coats of at least two donors using a standard Ficoll centrifugation protocol. Isolated PBMCs were resuspended in RPMI medium supplemented with 10% human AB serum and 2×10^5 cells/well were dispensed into 384-well plates containing compounds (70 μL total volume). After overnight incubation of the PBMCs with the compounds, 10 μL of supernatant was transferred to 384-well plates containing 5×10^3 HEK-ISRE-luc cells/well in 30 μL (plated the day before). Following 24 hours of incubation, activation of the ISRE elements was measured by assaying luciferase activity using 40 μL/well Steady Lite Plus substrate (Perkin Elmer) and measured with ViewLux ultraHTS microplate imager (Perkin Elmer). The stimulating activity of each compound on the HEK-ISRE-luc cells was reported as LEC. The LEC in turn indicates the degree of ISRE activation on transfer of a defined amount of PBMC culture medium. Recombinant interferon alfa-2a (Roferon-A) was used as a standard control compound.

SMILES: CCOC(=O)N1CCc2cccc(c2)OCC=CCCOc2nc(N)c([N+](=O)[O-])c1n2
- ring closure, yield of all isomers ([1]; from C=CCCOc1nc(N)c([N+](=O)[O-])c(N(CCc2cccc(OCC=C)c2)C(=O)OCC)n1, Grubbs catalyst 2nd generation, CH2Cl2, 5.2 mM, 25.0 °C, 7.0 h): 52%

SMILES: CCOC(=O)N1Cc2ncccc2OCCC=CCOc2nc(N=P(c3ccccc3)(c3ccccc3)c3ccccc3)c([N+](=O)[O-])c1n2
- ring closure, yield of all isomers ([1]; from C=CCCOc1cccnc1CN(C(=O)OCC)c1nc(OCC=C)nc(N=P(c2ccccc2)(c2ccccc2)c2ccccc2)c1[N+](=O)[O-], Hoveyda-Grubbs 2nd generation (with chlorodicyclohexylborane), 1,2-dichloroethane, 2.98 mM, 120.0 °C, 31.0 h): 54%

SMILES: CCOC(=O)N1Cc2cccc(c2)CC=CCCOc2nc(N)c([N+](=O)[O-])c1n2
- ring closure, yield of all isomers ([1]; from C=CCCOc1nc(N)c([N+](=O)[O-])c(N(Cc2cccc(CC=C)c2)C(=O)OCC)n1, Grubbs catalyst 2nd generation, CH2Cl2, 3.14 mM, 25.0 °C, 16.0 h): 27.4%

SMILES: CCOC(=O)N1Cc2cccc(c2)CC=CCCCOc2nc(N)c([N+](=O)[O-])c1n2
- ring closure, yield of all isomers ([1]; from C=CCCCOc1nc(N)c([N+](=O)[O-])c(N(Cc2cccc(CC=C)c2)C(=O)OCC)n1, Grubbs catalyst 2nd generation, CH2Cl2, 3.13 mM, 25.0 °C, 2.0 h): 73%

SMILES: CCOC(=O)N1Cc2ncccc2OCC=CCCOc2nc(N)c([N+](=O)[O-])c1n2
- ring closure, yield of all isomers ([1]; from C=CCCOc1nc(N)c([N+](=O)[O-])c(N(Cc2ncccc2OCC=C)C(=O)OCC)n1, Hoveyda-Grubbs 2nd generation (with chlorodicyclohexylborane), 1,2-dichloroethane, 3.74 mM, 80.0 °C, 1.0 h): 70%

SMILES: CCOC(=O)N1Cc2ccc(F)c(c2)OCC=CCOc2nc(N)c([N+](=O)[O-])c1n2
- ring closure, yield of all isomers ([1]; from C=CCOc1nc(N)c([N+](=O)[O-])c(N(Cc2ccc(F)c(OCC=C)c2)C(=O)OCC)n1, Grubbs-Hoveyda catalyst 2nd generation (with chlorodicyclohexylborane), 1,2-dichloroethane, 5.07 mM, 120.0 °C, 3.0 h): 58%

SMILES: CCOC(=O)N1Cc2ccc(OC)c(c2)OCC=CCOc2nc(N)c([N+](=O)[O-])c1n2
- ring closure, yield of all isomers ([1]; from C=CCOc1nc(N)c([N+](=O)[O-])c(N(Cc2ccc(OC)c(OCC=C)c2)C(=O)OCC)n1, Grubbs catalyst 2nd generation, CH2Cl2, 3.63 mM, 25.0 °C, 66.0 h): 7.6%

SMILES: CCOC(=O)N1CCc2cccc(c2)OCC=CCOc2nc(N)c([N+](=O)[O-])c1n2
- ring closure, yield of all isomers ([1]; from C=CCOc1cccc(CCN(C(=O)OCC)c2nc(OCC=C)nc(N)c2[N+](=O)[O-])c1, Grubbs 2nd generation, dichloromethane, 5.2 mM, 25.0 °C, 36.0 h): 56.5%

SMILES: Nc1nc2nc3c1ncn3Cc1cccc(c1)CC=CCCO2
- ring closure, yield of all isomers ([1]; from C=CCCOc1nc(N)c2ncn(Cc3cccc(CC=C)c3)c2n1, Hoveyda-Grubbs 2nd generation (with chlorodicyclohexylborane), 1,2-dichloroethane, 2.98 mM, 120.0 °C, 23.0 h): 34%

SMILES: COc1nc2c(N)nc3nc2n1Cc1cccc(c1)CC=CCCO3
- ring closure, yield of all isomers ([1]; from C=CCCOc1nc(N)c2nc(OC)n(Cc3cccc(CC=C)c3)c2n1, Grubbs catalyst 2nd generation, CH2Cl2, 3.42 mM, 24.0 h): 23%

SMILES: Nc1nc2nc3c1ncn3Cc1ncccc1OCC=CCCO2
- ring closure, yield of all isomers ([1]; from C=CCCOc1nc(N)c2ncn(Cc3ncccc3OCC=C)c2n1, Grubbs-Hoveyda catalyst 2nd generation (with chlorodicyclohexylborane), 1,2-dichloroethane, 3.04 mM, 120.0 °C, 10.0 h): 5%

SMILES: CCOC(=O)N1Cc2cccc(c2)OCC=CCOc2nc(N)c([N+](=O)[O-])c1n2
- ring closure, yield of all isomers ([1]; from C=CCOc1cccc(CN(C(=O)OCC)c2nc(OCC=C)nc(N)c2[N+](=O)[O-])c1, Hoveyda-Grubbs 2nd generation (with chlorodicyclohexylborane), 1,2-dichloroethane, 4.22 mM, 120.0 °C, 4.0 h): 36%

SMILES: CCOC(=O)N1Cc2cc(OC)cc(c2)OCC=CCOc2nc(N)c([N+](=O)[O-])c1n2
- ring closure, yield of all isomers ([1]; from C=CCOc1cc(CN(C(=O)OCC)c2nc(OCC=C)nc(N)c2[N+](=O)[O-])cc(OC)c1, Grubbs-Hoveyda catalyst 2nd generation (with chlorodicyclohexylborane), 1,2-dichloroethane, 3.63 mM, 120.0 °C, 18.0 h): 27%

SMILES: CCOc1nc2c(N)nc3nc2n1Cc1cccc(c1)CC=CCCCn1ccnc1-3
- ring closure, yield of all isomers ([1]; from C=CCCCn1ccnc1-c1nc(N)c2nc(OCC)n(Cc3cccc(CC=C)c3)c2n1, Grubbs catalyst 2nd generation, CH2Cl2, 3.76 mM, 25.0 °C, 24.0 h): 5%

SMILES: CCOC(=O)N1Cc2cccc(c2)CC=CCCC(CO[Si](C)(C)C(C)(C)C)Nc2nc(N)c([N+](=O)[O-])c1n2 (stereo not shown)
- ring closure, yield of all isomers ([1]; from C=CCCC(CO[Si](C)(C)C(C)(C)C)Nc1nc(N)c([N+](=O)[O-])c(N(Cc2cccc(CC=C)c2)C(=O)OCC)n1, Grubbs catalyst 2nd generation, CH2Cl2, 7.83 mM, 25.0 °C, 24.0 h): 70%

- HEK293 TLR7-NFκB-luc (LEC; μM) (human TLR7): 0.92 µM
SMILES: Nc1nc2nc3c1nc(O)n3CCc1cccc(c1)OC/C=C/CO2 [Compound 32]
- minimal effective concentration [2]: 0.12 µM

- HEK293 TLR7-NFκB-luc (LEC; μM) (human TLR7): 0.39 µM
SMILES: Nc1nc2nc3c1nc(O)n3Cc1cccc(c1)OCCOCCO2 [Compound 12]
- minimal effective concentration [2]: 0.043 µM

- HEK293 TLR7-NFκB-luc (LEC; μM) (human TLR7): 1.68 µM
SMILES: Nc1nc2nc3c1nc(O)n3Cc1cccc(=O)n1CCCCN2 [Compound 35]
- minimal effective concentration [2]: 0.41 µM

- HEK293 TLR7-NFκB-luc (LEC; μM) (human TLR7): 0.0024 µM
SMILES: COc1ccc2cc1C/C=C\CCOc1nc(N)c3nc(O)n(c3n1)C2 [Compound 67]
- minimal effective concentration [2]: 0.0028 µM

- HEK293 TLR7-NFκB-luc (LEC; μM) (human TLR7): 5.77 µM
SMILES: Nc1nc2nc3c1nc(O)n3Cc1ncccc1OC/C=C/CCO2 [Compound 44]
- minimal effective concentration [2]: 0.62 µM
